Results reported in patent US20140243302A1, “BRIDGED BICYCLIC COMPOUNDS FOR THE TREATMENT OF BACTERIAL INFECTIONS” (priority 2011, published 2014).
≈ marks a conversion by molar mass, not a printed value.

Tests used:
Format in all cases: cell-based
[1] = test system: Escherichia coli ATCC 25922; assay: MIC assay, modified agar dilution (CLSI), E. coli ATCC 25922
Experimental: (§1) The potency of antibacterial agents was measured using the Minimal Inhibitory Concentration (MIC) assay. The assay measures the ability of test agents to inhibit the growth of bacteria on agar-containing medium.
(§2) The bacterial test strains used were exemplified by Staphylococcus aureus Smith, Enterococcus faecium A2373, Streptococcus pneumoniae IID554, and Escherichia coli ATCC 25922. All strains were maintained as frozen stocks held at −80° C. in skim milk. Other bacterial test strains are well known to those skilled in the art and can be used for testing.
(§3) Mueller Hinton Agar (MHA BBL; Becton Dickinson and Company, Sparks, Md.) was used as the medium. MHA was supplemented with 5% defibrinated horse blood (DHB; Nippon Biotest Laboratories inc.) to support the growth of S. pneumoniae and E. faecium.
(§4) MIC values were determined using a modified agar dilution procedure described by the Clinical and Laboratory Standards Institute (CLSI; Methods for Dilution Antimicrobial Susceptibility Tests for Bacteria That Grow Aerobically; Approved Standard—Eighth Edition. CLSI document M07-A8 [ISBN 1-56238-689-1]. Clinical and Laboratory Standards Institute, 940 West Valley Road, Suite 1400, Wayne, Pa. 19087-1898 USA, 2009).
(§5) Stock solutions (6.4 mgmL) of test compounds were prepared in 100% ultrapure dimethyl sulfoxide (DMSO; source) on the day of the assay. […]

[2] = test system: A_bau_IID876; assay: MIC assay, modified agar dilution (CLSI), A_bau_IID876
Experimental: as §1, §3, §4
(§6) Stock solutions (6.4 mgmL) of test compounds were prepared in 100% ultrapure dimethyl sulfoxide (DMSO; source) on the day of the assay. Subsequent serial dilutions were performed to generate solutions with concentrations ranging from 6.4 to 0.0002 mgmL in 100% DMSO.
(§7) Agar medium containing test compound was prepared by adding the dilutions of antimicrobial solution to molten MHA at a temperature of 45-50° C. […]

[3] = test system: Staphylococcus aureus Smith; assay: MIC assay, modified agar dilution (CLSI), S. aureus Smith; settings: for MIC: Staphylococcus aureus, agar dilution, 35° C., 16-20 hr, lowest concentration that completely inhibited growth, read-out: S_aureus_Smith_WT_MIC; for susceptibility of S. aureus Smith based on MIC interpretive standards defined by CLSI: reference antibiotics
Outline: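 Agar dilution per CLSI on Mueller Hinton agar (plus 5% horse blood for S. pneumoniae and E. faecium), compound 128 to 0.001 μg/mL in two-fold steps. Spots of ~1×10^4 CFU incubated at 35 °C for 16-20 hr before MIC scoring.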

[4] = test system: Pseudomonas aeruginosa PAO1; assay: MIC assay, modified agar dilution (CLSI), P. aeruginosa PAO1
Experimental: as §1, §3, §4, §6, §7

[5] = test system: Streptococcus pneumoniae IID554; assay: MIC assay, modified agar dilution (CLSI), S. pneumoniae IID554; settings: for Strep_Pn_IID554_WT_MIC: agar dilution, MHA with 5% defibrinated horse blood; for susceptibility of S. pneumoniae IID554 based on MIC interpretive standards defined by CLSI: reference antibiotics
Experimental: as §1, §2, §3, §4, §6
Agar medium containing test compound was prepared by adding the dilutions of antimicrobial solution to molten MHA at a temperature of 45-50° C. The agar and antimicrobial solution were mixed thoroughly, poured into petri dishes, and allowed to solidify at room temperature. The final concentration of test compounds in the MHA medium ranged from 128 to 0.001 μg/mL with two-fold dilutions. MHA plates lacking antibacterial compound were used for growth controls.
Prior to susceptibility testing, the bacterial isolates were removed from frozen storage, thawed at room temperature, sub-cultured to MHA medium and incubated overnight at 35° C. S. pneumoniae and E. faecium were subcultured on MHA supplemented with 5% DHB at 35° C. with […]. Colonies from each plate were suspended in normal saline. This suspension was adjusted to the turbidity of a 0.5 McFarland standard, 1-2×10^8 colony forming units (CFU) per mL, and diluted 100-fold to 1-2×10^6 CFUmL.
Suspensions of bacterial cultures were applied to the surface of MHA plates containing test compound as well as to a growth control plate lacking test compound using an inoculum-replicating device with 4 mm pins. The replicating device applied 5 uL of the bacterial suspension such that each spot contained approx. 1×10^4 CFU. […]

[6] = test system: Enterococcus faecium A2373; assay: MIC assay, modified agar dilution (CLSI), E. faecium A2373; settings: reference antibiotics
Experimental: as §1, §2, §3, §4, §5

Work on `COc1ccc2ncc(F)c(CC(O)C34CCC(NCc5ccc6c(n5)NC(=O)CO6)(CC3)CO4)c2n1.Cl` (single isomer, unassigned) [Example 20a, 6-((1-(2-(3-Fluoro-6-methoxy-1,5-naphthyridin-4-yl)-1-hydroxyethyl)-2-oxabicyclo[2.2.2]octan-4-ylamino)methyl)-2H-pyrido[3,2-b][1,4]oxazin-3(4H)-one Hydrochloride] yielded an E_coli_ATCC25922_WT_MIC [1] of 4.00 µg/mL, an A_bau_IID876_WT_MIC [2] of 1.00 µg/mL and an MIC [3] of 0.063 µg/mL. The P_ae_PAO1_WT_MIC [4] was 16.0 µg/mL and the Strep_Pn_IID554_WT_MIC [5] was 0.250 µg/mL.
With `COc1ccc2ncc(F)c(CCC34CCC(NCc5ccc6c(n5)NC(=O)CO6)(CC3)CO4)c2n1.Cl` [Example 18, 6-((1-(2-(3-Fluoro-6-methoxy-1,5-naphthyridin-4-yl)ethyl)-2-oxabicyclo[2.2.2]octan-4-ylamino)methyl)-2H-pyrido[3,2-b][1,4]oxazin-3(4H)-one Hydrochloride] the E_coli_ATCC25922_WT_MIC [1] was 1.00 µg/mL, the A_bau_IID876_WT_MIC [2] was 0.500 µg/mL and the MIC [3] was 0.016 µg/mL. For the same compound, the P_ae_PAO1_WT_MIC [4] was 4.00 µg/mL and the Strep_Pn_IID554_WT_MIC [5] was 0.0630 µg/mL.
For `Cl.O=C1COc2ccc(CNC34CCC(CCn5c(=O)ccc6ncc(OCC7CC7C(=O)O)cc65)(CC3)OC4)nc2N1` (stereo not drawn) [Example 283, 2-((6-Oxo-5-(2-(4-((3-oxo-3,4-dihydro-2H-pyrido[3,2-b][1,4]oxazin-6-yl)methylamino)-2-oxabicyclo[2.2.2]octan-1-yl)ethyl)-5,6-dihydro-1,5-naphthyridin-3-yloxy)methyl)cyclopropanecarboxylic Acid Hydrochloride], the MIC [3] was 16 µg/mL.
In the case of `COc1ccc2ncc(F)c(CCC34CCC(NCc5cc6c(F)ccc(F)c6nc5OC)(CC3)CO4)c2n1` [Example 288, N-((5,8-Difluoro-2-methoxyquinolin-3-yl)methyl)-1-(2-(3-fluoro-6-methoxy-1,5-naphthyridin-4-yl)ethyl)-2-oxabicyclo[2.2.2]octan-4-amine], the MIC [3] is reported as 0.125 µg/mL (≈ 0.232 µM).
`O=C1COc2ccc(CNC34CCC(CCc5c(F)cnc6ccc(N7CCOC7=O)nc56)(CC3)OC4)nc2N1` [Example 292, 6-((1-(2-(3-Fluoro-6-(2-oxooxazolidin-3-yl)-1,5-naphthyridin-4-yl)ethyl)-2-oxabicyclo[2.2.2]octan-4-ylamino)methyl)-2H-pyrido[3,2-b][1,4]oxazin-3(4H)-one] gave an MIC [3] of 0.125 µg/mL (≈ 0.228 µM).
With `O=C1COc2ccc(CNC34CCC(CCc5c(F)cnc6ccc(N7CCC(O)CC7)nc56)(CC3)OC4)nc2N1` [Example 293, 6-((1-(2-(3-Fluoro-6-(4-hydroxypiperidin-1-yl)-1,5-naphthyridin-4-yl)ethyl)-2-oxabicyclo[2.2.2]octan-4-ylamino)methyl)-2H-pyrido[3,2-b][1,4]oxazin-3(4H)-one] the MIC [3] was 0.5 µg/mL (≈ 0.889 µM).
Compound `O=C1COc2ccc(CNC34CCC(CCc5c(F)cnc6ccc(N7CC[C@H](O)C7)nc56)(CC3)OC4)nc2N1` [Example 294, (S)-6-((1-(2-(3-Fluoro-6-(3-hydroxypyrrolidin-1-yl)-1,5-naphthyridin-4-yl)ethyl)-2-oxabicyclo[2.2.2]octan-4-ylamino)methyl)-2H-pyrido[3,2-b][1,4]oxazin-3(4H)-one] has an MIC [3] of 0.125 µg/mL (≈ 0.228 µM).
With `CC(=O)NC[C@H]1CN(c2ccc(N3CCOCC3)c(F)c2)C(=O)O1` [linezolid, reference compound] the “susceptibility of S. aureus Smith based on MIC interpretive standards defined by CLSI” value [3] was “susceptible”, the “susceptibility of E. faecium A2373” value [6] was “susceptible” and the “susceptibility of S. pneumoniae IID554 based on MIC interpretive standards defined by CLSI” value [5] was “susceptible”.
With `CN[C@H](CC(C)C)C(=O)N[C@H]1C(=O)N[C@@H](CC(N)=O)C(=O)N[C@H]2C(=O)N[C@H]3C(=O)N[C@H](C(=O)N[C@H](C(=O)O)c4cc(O)cc(O)c4-c4cc3ccc4O)[C@H](O)c3ccc(c(Cl)c3)Oc3cc2cc(c3O[C@@H]2O[C@H](CO)[C@@H](O)[C@H](O)[C@H]2O[C@H]2C[C@](C)(N)[C@H](O)[C@H](C)O2)Oc2ccc(cc2Cl)[C@H]1O` [vancomycin, reference compound] the “susceptibility of S. aureus Smith based on MIC interpretive standards defined by CLSI” value [3] was “susceptible”, the “susceptibility of E. faecium A2373” value [6] was “resistant” and the “susceptibility of S. pneumoniae IID554 based on MIC interpretive standards defined by CLSI” value [5] was “susceptible”.
